Among the data in PubChem BioAssay (NCI) are TGI and GI50 values, retold here.

Some test systems named below: EKVX NSCLC; HCC-2998 colon; HOP-62 NSCLC; K-562 leukemia; RXF 393 renal; SF-268 CNS; SK-MEL-5 melanoma; SNB-19 CNS; T-47D breast; TK-10 renal.
Holding throughout (assay): NCI-60 cell line screen, 48 h

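Grown in 96-well plates, cells were treated for 48 hours with each compound at five concentrations. Insufficient inhibition: endpoint recorded as highest concentration tested. GI50 is the concentration that inhibits growth by half. TGI is the concentration that stops growth completely.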

With `CC(C)(C)OC(=O)N[C@H]1CC2(C=C(Cl)C(=O)C(Cl)=C2)OC1=O`, the TGI was 40.9 µM in the test with EKVX NSCLC; 31.8 µM in the test with HCC-2998 colon; over 73.7 µM in the test with HOP-62 NSCLC; 7.41 µM in the test on K-562 leukemia; 22.4 µM in the test on RXF 393 renal; 32.3 µM in the test with SF-268 CNS. Further, the TGI in the test on SK-MEL-5 melanoma is 38.5 µM; in the test on SNB-19 CNS it was over 100 µM; in the test on T-47D breast, 40.5 µM; in the test with TK-10 renal, 33.8 µM.

Take `COc1cc2c3c(n(C)c(=O)c2cc1OC)-c1cc2c(cc1/C3=C\CCCN)OCO2`: the GI50 was 17.7 µM in the test on EKVX NSCLC; 10.4 µM in the test on HCC-2998 colon; 3.64 µM in the test on HOP-62 NSCLC; 1.31 µM in the test on K-562 leukemia; 5.84 µM with RXF 393 renal; 4.93 µM in the test with SF-268 CNS. For the same compound, the GI50 is 2.99 µM in the test with SK-MEL-5 melanoma, 18.7 µM with SNB-19 CNS, 10.9 µM in the test on T-47D breast and 21.9 µM in the test with TK-10 renal. In addition, the TGI in the test on EKVX NSCLC is over 100 µM; in the test on HCC-2998 colon, 32.3 µM; in the test on HOP-62 NSCLC, 26.6 µM; in the test on K-562 leukemia, 12 µM; in the test on RXF 393 renal it was 32 µM; with SF-268 CNS, 66.9 µM. In addition, the TGI in the test with SK-MEL-5 melanoma was 13.8 µM; in the test on SNB-19 CNS, over 100 µM; in the test with T-47D breast, over 100 µM; in the test on TK-10 renal, over 100 µM.

For `COc1cc(/C=C/c2cc(O)c(C(C)=O)c(O)c2)cc2c1O[C@]1(C)CC[C@@H](O)C(C)(C)[C@H]1C2`, the GI50 is 13.1 µM with EKVX NSCLC; 6.7 µM in the test with HCC-2998 colon; 4.56 µM in the test with HOP-62 NSCLC; 3.64 µM in the test on K-562 leukemia; 1.7 µM in the test with RXF 393 renal; 5.86 µM in the test with SF-268 CNS. In addition, the GI50 is 7.12 µM in the test on SK-MEL-5 melanoma, 7.46 µM in the test with SNB-19 CNS, 6.22 µM in the test with T-47D breast and 22.2 µM with TK-10 renal. Besides, the TGI was 72.9 µM in the test on EKVX NSCLC; 32.4 µM with HCC-2998 colon; 48.4 µM in the test on HOP-62 NSCLC; over 100 µM with K-562 leukemia; 6.06 µM with RXF 393 renal; 55.2 µM in the test on SF-268 CNS. The TGI with SK-MEL-5 melanoma is 22.3 µM; in the test with SNB-19 CNS, over 100 µM; with T-47D breast, 64.6 µM; with TK-10 renal it was over 100 µM.

As to `Cc1cccc2c1CC1(C2)Cc2c(C)cccc2C1=O` (stereo not given), the TGI amounted to 72.8 µM in the test on EKVX NSCLC; 65.1 µM in the test on HCC-2998 colon; 54.5 µM in the test on HOP-62 NSCLC; 70.3 µM with K-562 leukemia; 38.1 µM in the test on RXF 393 renal; 87.1 µM in the test on SF-268 CNS. The TGI in the test on SK-MEL-5 melanoma is 33.7 µM; with SNB-19 CNS, over 100 µM; in the test on T-47D breast, over 100 µM; in the test with TK-10 renal it was 92.1 µM.

Turning to `Cc1c2c(nn1-c1ccc(S(=O)(=O)/N=C3\SCCC(=O)N3c3ccccc3)cc1)-c1ccccc1CC2`, the GI50 in the test on EKVX NSCLC was 94 µM; in the test on HCC-2998 colon, over 100 µM; with HOP-62 NSCLC, 46.4 µM; in the test with K-562 leukemia, over 100 µM; with RXF 393 renal, 70.9 µM; with SF-268 CNS, 35 µM. For the same compound, the GI50 was 95.9 µM with SK-MEL-5 melanoma, over 100 µM in the test with SNB-19 CNS, over 100 µM in the test with T-47D breast and over 100 µM with TK-10 renal. For the same compound, the TGI in the test with EKVX NSCLC, in the test on HCC-2998 colon, with HOP-62 NSCLC, in the test on K-562 leukemia, in the test on RXF 393 renal and in the test on SF-268 CNS was over 100 µM in each case. For the same compound, the TGI with SK-MEL-5 melanoma, with SNB-19 CNS, with T-47D breast and in the test with TK-10 renal was over 100 µM each time.

Consider `C=C1C(=O)O[C@H]2[C@H]1CC/C(COC(=O)c1c[nH]c3ccccc13)=C\CC[C@@]1(C)O[C@@H]21`, for which the GI50 is 0.315 µM in the test with EKVX NSCLC; 0.32 µM in the test on HCC-2998 colon; 0.825 µM with HOP-62 NSCLC; 0.279 µM with K-562 leukemia; 0.19 µM with RXF 393 renal; 0.294 µM in the test on SF-268 CNS. For the same compound, the GI50 in the test on SK-MEL-5 melanoma is 0.204 µM; with SNB-19 CNS, 1.3 µM; with T-47D breast, 0.401 µM; in the test on TK-10 renal, 0.28 µM. Moreover, the TGI worked out at 2.01 µM in the test on EKVX NSCLC; 1.08 µM with HCC-2998 colon; 2.41 µM in the test on HOP-62 NSCLC; 1.62 µM with K-562 leukemia; 0.391 µM in the test with RXF 393 renal; 1.07 µM in the test with SF-268 CNS. For the same compound, the TGI was found to be 0.499 µM in the test on SK-MEL-5 melanoma, 2.91 µM in the test on SNB-19 CNS, 2.26 µM in the test on T-47D breast and 0.736 µM in the test on TK-10 renal.

With `O=C1NCC2(CCN(CCCC3(c4ccc(F)cc4)OCCO3)CC2)N1c1ccccc1`, the TGI in the test with EKVX NSCLC, in the test with HCC-2998 colon, with HOP-62 NSCLC, in the test on K-562 leukemia, in the test with RXF 393 renal and in the test with SF-268 CNS was over 100 µM each time. Also, the TGI with SK-MEL-5 melanoma, in the test on SNB-19 CNS, with T-47D breast and in the test on TK-10 renal was over 100 µM in each case.

In the case of `CCN(CC)/C(SCc1ccccc1)=C(\C(Cl)=C(Cl)Cl)[N+](=O)[O-]`, the TGI is 56.4 µM with EKVX NSCLC; 47.7 µM in the test with HCC-2998 colon; 45.6 µM in the test with HOP-62 NSCLC; over 100 µM with K-562 leukemia; 26.6 µM in the test with RXF 393 renal; 46.6 µM in the test on SF-268 CNS. Further, the TGI came out at 30.5 µM in the test with SK-MEL-5 melanoma, 97.5 µM in the test on SNB-19 CNS, 86.7 µM in the test with T-47D breast and 33.3 µM in the test on TK-10 renal.

With `C=C1NC(=O)C(C(C)CC)NC(=O)C2CSCC(NC(=O)CCC(=O)O)C(=O)NC(Cc3ccccc3)C(=O)NC(C)C(=O)NC(CC(C)CC)C(=O)NC(C(=O)NC(Cc3ccccc3)C(=O)N3CCCC3C(=O)N2)C(C)OC(=O)C(CO)NC(=O)C(C(O)COC)N(C)C(=O)C(C(C)C)NC(=O)C(CC(C)CC)NC1=O` (stereo not given), the GI50 in the test with EKVX NSCLC is 0.046 µM; with HCC-2998 colon it was 0.0377 µM; in the test with HOP-62 NSCLC, 0.0198 µM; with K-562 leukemia it was 0.0124 µM; in the test on RXF 393 renal, 0.0136 µM; with SF-268 CNS, 0.0342 µM. Besides, the GI50 in the test on SK-MEL-5 melanoma was 0.00637 µM; with SNB-19 CNS, 0.0255 µM; in the test on T-47D breast, 0.0242 µM; with TK-10 renal it was 0.95 µM. The TGI in the test with EKVX NSCLC, in the test with HCC-2998 colon, with HOP-62 NSCLC, in the test with K-562 leukemia, in the test with RXF 393 renal and in the test on SF-268 CNS was over 6 µM each time. Besides, the TGI with SK-MEL-5 melanoma was 0.427 µM; in the test with SNB-19 CNS, over 6 µM; in the test with T-47D breast, over 6 µM; with TK-10 renal, over 6 µM.
